Literature values in US8877808B2, “Protection against skin diseases by aurin tricarboxylic acid and its derivatives” (Aurin Biotech Inc., priority 2012, dated 2014).

Target: C9 binding to C5b678 (Homo sapiens, UniProt P02748)
Details: Lee et al. 2012a

Chain of C9 binding to C5b678 (P02748 22-559): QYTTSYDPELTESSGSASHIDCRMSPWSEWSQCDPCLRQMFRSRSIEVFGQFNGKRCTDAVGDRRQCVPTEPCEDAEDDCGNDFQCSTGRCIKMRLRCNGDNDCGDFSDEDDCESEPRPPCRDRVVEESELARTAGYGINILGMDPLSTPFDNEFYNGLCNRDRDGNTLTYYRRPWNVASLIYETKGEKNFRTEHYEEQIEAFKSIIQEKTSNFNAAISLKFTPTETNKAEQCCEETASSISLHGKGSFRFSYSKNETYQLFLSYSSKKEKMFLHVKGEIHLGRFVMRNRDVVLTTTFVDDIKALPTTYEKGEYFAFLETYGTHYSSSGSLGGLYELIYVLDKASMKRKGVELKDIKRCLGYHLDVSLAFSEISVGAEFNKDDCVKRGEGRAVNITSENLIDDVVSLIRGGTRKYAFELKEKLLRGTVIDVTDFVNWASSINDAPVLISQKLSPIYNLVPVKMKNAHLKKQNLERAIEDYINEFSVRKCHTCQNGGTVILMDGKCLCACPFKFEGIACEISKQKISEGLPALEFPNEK

| Substance | block of classical pathway at C9 binding to C5b678, formation of the MAC (C5b-9) |
| --- | --- |
| aurin hexacarboxylic acid [AHA] | block classical pathway formation at the stage of C9 binding to C5b678 |
| aurin quadracarboxylic acid [AQA] | block classical pathway formation at the stage of C9 binding to C5b678 |
